One experiment deals with T1, Carboxypeptidase B (Sus scrofa, UniProt P09955).
T1 sequence (P09955 whole entry): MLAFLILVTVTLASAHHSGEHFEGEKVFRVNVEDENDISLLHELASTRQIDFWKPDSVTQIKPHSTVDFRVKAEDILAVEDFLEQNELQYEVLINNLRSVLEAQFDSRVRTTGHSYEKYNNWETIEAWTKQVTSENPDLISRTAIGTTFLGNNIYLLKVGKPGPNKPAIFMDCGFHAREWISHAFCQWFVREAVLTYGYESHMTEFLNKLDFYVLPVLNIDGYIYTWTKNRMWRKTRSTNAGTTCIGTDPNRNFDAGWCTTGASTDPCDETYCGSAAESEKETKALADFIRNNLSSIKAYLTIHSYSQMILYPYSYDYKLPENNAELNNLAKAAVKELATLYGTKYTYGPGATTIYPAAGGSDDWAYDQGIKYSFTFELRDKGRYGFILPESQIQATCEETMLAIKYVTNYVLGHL
In words: Inhibition of porcine pancreatic carboxypeptidase B.

A further experiment addresses T2, Carboxypeptidase B2 (Homo sapiens, UniProt Q96IY4).
T2 sequence (Q96IY4 whole entry): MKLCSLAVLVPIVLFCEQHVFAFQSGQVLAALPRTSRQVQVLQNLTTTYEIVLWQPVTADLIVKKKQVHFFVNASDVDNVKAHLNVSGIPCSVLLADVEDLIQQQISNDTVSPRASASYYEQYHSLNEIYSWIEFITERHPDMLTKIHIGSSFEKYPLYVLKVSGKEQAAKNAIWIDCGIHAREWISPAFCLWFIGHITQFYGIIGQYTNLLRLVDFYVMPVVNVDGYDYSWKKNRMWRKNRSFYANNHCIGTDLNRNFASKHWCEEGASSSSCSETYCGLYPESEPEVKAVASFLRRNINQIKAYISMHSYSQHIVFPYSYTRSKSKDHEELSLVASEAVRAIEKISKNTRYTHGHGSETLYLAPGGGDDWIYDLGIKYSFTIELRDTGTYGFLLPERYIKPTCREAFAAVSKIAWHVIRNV
As to the kind of experiment: Inhibition of human activated thrombin activatable fibrinolysis inhibitor.

Experiment [1] concerns the target T3, Carboxypeptidase N catalytic chain (Homo sapiens, UniProt P15169).
T3 sequence (P15169 whole entry): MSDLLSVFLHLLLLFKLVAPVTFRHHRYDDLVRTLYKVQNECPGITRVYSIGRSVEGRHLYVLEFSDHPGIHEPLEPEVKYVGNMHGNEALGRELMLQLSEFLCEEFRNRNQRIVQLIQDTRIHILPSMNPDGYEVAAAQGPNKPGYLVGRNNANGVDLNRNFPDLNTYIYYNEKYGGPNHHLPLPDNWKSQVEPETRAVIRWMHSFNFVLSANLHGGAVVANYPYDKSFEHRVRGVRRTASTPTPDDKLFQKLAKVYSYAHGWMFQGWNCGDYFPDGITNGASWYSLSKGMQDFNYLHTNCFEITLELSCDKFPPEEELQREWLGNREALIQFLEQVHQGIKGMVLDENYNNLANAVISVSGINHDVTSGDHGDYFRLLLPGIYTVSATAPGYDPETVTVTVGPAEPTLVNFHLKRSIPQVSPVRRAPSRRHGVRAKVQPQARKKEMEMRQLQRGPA
In words: Inhibition of human carboxypeptidase N.

The next experiment has as its system Plasma. As to the kind of experiment: Inhibition of activated thrombin activatable fibrinolysis inhibitor in human plasma assessed as acceleration of clot lysis time. In kind it is functional, cell-free.

Molecules are shown by their SMILES. Some results are limits rather than exact numbers.

For `NC(N)=NCCCC(CS)C(=O)O` (stereo not given), the results for the IC50 (at Carboxypeptidase B; against Carboxypeptidase B2; in experiment [1]) were 0.01 µM, 0.008 µM and 0.002 µM, respectively.
In the same order, the values of `N=C(N)N1CCC(C(CS)C(=O)O)CC1` (stereo not given) are 0.045 µM, 1.07 µM and 3.1 µM.
`CC(=N)N1CCC(C(CS)C(=O)O)CC1` (stereo not given): the IC50 on Carboxypeptidase B amounted to 1.04 µM; against Carboxypeptidase B2 it was 5.3 µM; in experiment [1] it was 29 µM.
For `NCC(=O)N1CCC(C(CS)C(=O)O)CC1` (stereo not given), in that order: above 30 µM, 7.35 µM and 4.95 µM.
For the molecule `N=C(N)Nc1ccc(Cl)c(C(CS)C(=O)O)c1` (stereo not given), the half-maximal inhibitory concentration (IC50) is 4.65 µM against Carboxypeptidase B, 0.011 µM at Carboxypeptidase B2 and 4.65 µM in experiment [1].
Consider `Nc1cccc(C(CS)C(=O)O)c1` (stereo not given), for which the figures for the IC50 (at Carboxypeptidase B; against Carboxypeptidase B2; in experiment [1]) were above 30 µM, 0.785 µM and 0.357 µM, respectively.
`O=C(O)C(CS)C1CCNCC1` (stereo not given): the IC50 against Carboxypeptidase B amounted to 0.195 µM; against Carboxypeptidase B2 it was 0.037 µM; in experiment [1], 0.06 µM.
Take `O=C(O)C(CS)CC1CCNCC1` (stereo not given): the IC50 worked out at 0.029 µM against Carboxypeptidase B, 0.139 µM against Carboxypeptidase B2 and 0.061 µM in experiment [1].
In the case of `N=C(N)c1ccc(C(CS)C(=O)O)cc1` (stereo not given), the IC50 came out at 0.845 µM at Carboxypeptidase B, 0.905 µM against Carboxypeptidase B2 and 1 µM in experiment [1].
On to `N=C(N)Nc1cccc(C(CS)C(=O)O)c1` (racemic) [listing 1 of 2 here], for which the results for the IC50 (at Carboxypeptidase B; on Carboxypeptidase B2; in experiment [1]) were 0.137 µM, 0.004 µM and 0.003 µM, respectively.
With `N=C(N)Nc1cccc(C(CS)C(=O)O)c1` (racemic) [listing 2 of 2 here], the Activity entry in the experiment with Plasma is “Dose-dependent effect”.
With `N=C(N)Nc1cccc(C(CS)C(=O)O)c1` (single isomer, unassigned; (+)), the IC50 was 0.036 µM against Carboxypeptidase B, 0.005 µM against Carboxypeptidase B2 and 0.008 µM in experiment [1].
Turning to `N=C(N)N1CCCC(C(CS)C(=O)O)C1` (stereo in doubt; 1b), the IC50 against Carboxypeptidase B worked out at 0.038 µM; on Carboxypeptidase B2 it was 0.045 µM; in experiment [1], 0.038 µM.
Turning to `O=C(O)C(CS)C1CCCNC1` (stereo in doubt; 1c), the IC50 against Carboxypeptidase B was above 30 µM; at Carboxypeptidase B2, 0.068 µM; in experiment [1] it was above 30 µM.
Take `N=C(N)N1CCCC(C(CS)C(=O)O)C1` (stereo in doubt; 1d): the IC50 against Carboxypeptidase B is 0.003 µM; against Carboxypeptidase B2 it was 0.165 µM; in experiment [1], 0.058 µM.
For `O=C(O)C(CS)C1CCCNC1` (stereo in doubt; 1e), in that order: 19 µM, 0.445 µM and 1.75 µM.
Regarding `O=C(O)C(CS)CC1CCCNC1` (stereo in doubt; 3a), the figures for the IC50 (against Carboxypeptidase B; on Carboxypeptidase B2; in experiment [1]) were 4.15 µM, 0.092 µM and 0.42 µM, respectively.
In the same order, the values of `O=C(O)C(CS)CC1CCCNC1` (stereo in doubt; 3b) are 1.95 µM, 0.129 µM and above 30 µM.
Regarding `N=C(N)Nc1cccc(C(CS)C(=O)O)c1` (stereo in doubt; (-)2a), the results for the IC50 (at Carboxypeptidase B; at Carboxypeptidase B2; in experiment [1]) were 1.72 µM, 0.003 µM and 1.72 µM, respectively.

The term IC50 denotes the concentration that gives 50% inhibition. Higher therefore signals lower potency.

For the origin of these results see ChEMBL document CHEMBL1139080, “3-Mercaptopropionic acids as efficacious inhibitors of activated thrombin activatable fibrinolysis inhibitor (TAFIa)” (Bioorg Med Chem Lett, 2007).
